# How the values were obtained:
# Assay in all cases: relative viability (nuclei count vs DMSO), 5 days (fraction); higher = more cells survive
# [1] = compound: CC(C)=CC[C@@H](O)C1=CC(=O)c2c(O)ccc(O)c2C1=O [Shikonin] + O=C(c1cc(Cc2n[nH]c(=O)c3ccccc23)ccc1F)N1CCN(C(=O)C2CC2)CC1 [Olaparib] (partner 8 µM)
# Procedure, shortened: (§1)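 For relative viability, nuclei counts in treated wells were divided by those in vehicle wells. Lung cancer cell lines had been pin-tool dosed in 1536-well plates the day after seeding and cultured for 5 days, then fixed and stained in one step (final 0.05% Triton X-100, 1% formaldehyde, 1 ug/ml Hoechst) and imaged at 4×. Doses were one drug alone or a fixed anchor-drug dose plus five library-drug doses (not always all listed) in √10 steps, and values are duplicate-plate medians.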
# [2] = compound: CC(C)=CC[C@@H](O)C1=CC(=O)c2c(O)ccc(O)c2C1=O [Shikonin] + Cc1cc(Nc2cc(N3CCN(C)CC3)nc(Sc3ccc(NC(=O)C4CC4)cc3)n2)n[nH]1 [Tozasertib] (partner 0.1 µM)
# Procedure, shortened: as §1
# [3] = compound: CC(C)=CC[C@@H](O)C1=CC(=O)c2c(O)ccc(O)c2C1=O [Shikonin] + CS(=O)(=O)CCNCc1ccc(-c2ccc3ncnc(Nc4ccc(OCc5cccc(F)c5)c(Cl)c4)c3c2)o1 [Lapatinib] (partner 2 µM)
# Procedure, shortened: as §1
# [4] = compound: CC(C)=CC[C@@H](O)C1=CC(=O)c2c(O)ccc(O)c2C1=O [Shikonin] + C[C@]1(O)C[C@@H](c2nc(-c3ccc4ccc(-c5ccccc5)nc4c3)c3c(N)nccn32)C1 [Linsitinib] (partner 1 µM)
# Procedure, shortened: as §1
# [5] = compound: CC(C)=CC[C@@H](O)C1=CC(=O)c2c(O)ccc(O)c2C1=O [Shikonin] + CC(C)C[C@H](NC(=O)[C@H](Cc1ccccc1)NC(=O)c1cnccn1)B(O)O [Bortezomib] (partner 0.002 µM)
# Procedure, shortened: as §1
Cell Line,relative viability ([1]; first compound 0.01 µM),relative viability ([1]; first compound 0.1 µM),relative viability ([1]; first compound 0.3162 µM),relative viability ([1]; first compound 1 µM),relative viability ([2]; first compound 0.01 µM),relative viability ([2]; first compound 0.1 µM),relative viability ([2]; first compound 0.3162 µM),relative viability ([2]; first compound 1 µM),relative viability ([3]; first compound 0.01 µM),relative viability ([3]; first compound 0.1 µM),relative viability ([3]; first compound 0.3162 µM),relative viability ([3]; first compound 1 µM),relative viability ([4]; first compound 0.01 µM),relative viability ([4]; first compound 0.1 µM),relative viability ([4]; first compound 0.3162 µM),relative viability ([4]; first compound 1 µM),relative viability ([5]; first compound 0.01 µM),relative viability ([5]; first compound 0.1 µM),relative viability ([5]; first compound 0.3162 µM),relative viability ([5]; first compound 1 µM)
NCI-H2342,0.43,0.392,0.38,0.383,0.408,0.494,0.502,0.507,–,–,–,–,–,–,–,–,–,–,–,–
HCC-15,0.796,0.735,0.722,0.669,0.459,0.445,0.33,0.465,0.945,0.996,0.918,0.919,0.99,0.906,0.874,0.935,1.16,1.15,1.08,1.22
A-427,0.802,0.872,0.708,0.795,0.198,0.192,0.159,0.225,1.05,1.37,0.967,1.14,1.11,1.21,1.19,1.14,1.07,1.17,0.979,1.05
NCI-H23,0.36,0.248,0.317,0.313,0.363,0.335,0.658,0.413,1.2,1.14,1.13,1.03,0.592,0.489,0.696,0.533,1.11,0.953,1.13,1.13
NCI-H1734,0.697,0.655,0.695,0.632,0.288,0.284,0.302,0.161,1.17,1.25,1.02,1.09,0.839,0.91,0.939,0.857,1.09,0.999,0.819,0.909
NCI-H520,0.323,0.368,0.283,0.295,0.49,0.436,0.475,0.433,–,0.813,0.884,0.923,–,1.11,1.07,1.07,–,0.699,0.48,0.689
RERF-LC-KJ,1.05,1.08,0.842,0.62,0.55,0.44,0.499,0.388,0.972,0.939,0.83,0.941,0.985,0.896,0.867,0.953,1.08,1.19,1.28,0.986
NCI-H1915,0.254,0.268,0.257,0.245,0.444,0.498,0.454,0.482,1.01,1.18,1,1.09,1.05,1.16,1.15,1.09,1.01,1.15,1.06,1.06
NCI-H1666,0.748,0.732,0.773,0.699,0.622,0.636,0.665,0.522,0.585,0.779,0.657,0.853,0.835,0.802,0.807,0.865,0.799,0.879,0.819,0.729
HCC-366,0.423,0.428,0.33,0.404,0.118,0.103,0.166,0.114,1.34,1.24,1.11,1.03,0.592,0.852,0.985,0.673,1.32,1.59,1.12,1.08
SK-MES-1,0.887,0.665,0.723,0.495,1.1,1.05,0.998,0.857,0.543,0.509,0.514,0.463,1.18,1.06,1.04,1.08,–,–,–,–
NCI-H1993,0.92,0.943,1.12,1.32,0.627,0.547,0.571,0.551,–,0.806,0.711,0.921,–,0.732,0.681,0.672,–,1.19,1.09,1.03
NCI-H838,0.798,0.845,0.865,0.667,0.289,0.264,0.257,0.29,1.02,1.03,0.979,0.996,1.05,1.08,1.07,1.03,0.992,0.727,0.842,0.685
SK-LU-1,0.45,0.413,0.441,0.468,0.317,0.338,0.351,0.3,1.07,0.869,0.724,0.786,1.26,1.27,0.999,1.01,1.14,0.984,1.34,1.58
NCI-H1623,–,–,–,–,0.423,0.472,0.441,0.449,–,–,–,–,–,–,–,–,–,–,–,–
Calu-6,0.6,0.695,0.556,0.356,–,–,–,–,1.16,1.34,1.11,1.16,0.984,1.08,0.984,0.972,1.1,1.2,0.878,0.674
LC-2-ad,0.736,0.872,0.689,0.765,0.486,0.392,0.485,0.435,0.798,1.38,1.04,0.965,0.769,0.884,0.833,0.812,1.08,1.05,1.07,1.02

# Reference: the supplement of paper PMC10307832
